Data on 33 compounds can be found in PubChem BioAssay AID1845228.

One may read the Papp as a coefficient for how fast a substance crosses the barrier.

The conditions of the data set: pampa; 60.0 min; 50.0 µM.
As to `COc1ccc(Cn2c(-c3ccccc3)c(-c3ccccc3)c3c(=N)n(CCO)cnc32)cc1`, the Papp came out at 279 ×10⁻⁶ cm/s.

`CO/N=C(\C(=O)N[C@@H]1C(=O)N2C(C(=O)O)=C(CSc3nc(C)c(CC(=O)O)s3)CS[C@H]12)c1csc(N)n1` gave a Papp below 1 ×10⁻⁶ cm/s.

As for `N[C@@H](COC(c1cccc(F)c1)c1ccccc1OCc1ccccc1)C(=O)O` (stereo partly drawn), the apparent permeability (Papp) is below 1 ×10⁻⁶ cm/s.

In turn, `CN(C)CC1CCOC1(c1ccccc1)c1ccccc1` (stereo not drawn) yielded a Papp of 47 ×10⁻⁶ cm/s.

`CN1CCN(c2ccc(C(=O)Nc3n[nH]c4ccc(Cc5cc(F)cc(F)c5)cc34)c(NC3CCOCC3)c2)CC1` yielded an apparent permeability coefficient (Papp) of 113 ×10⁻⁶ cm/s.

`Cc1ccc(=O)n(-c2ccccc2)c1` displayed a Papp of 14 ×10⁻⁶ cm/s.

The compound `Nc1nc(/C(=C/CC(=O)O)C(=O)N[C@@H]2C(=O)N3C(C(=O)O)=CCS[C@H]23)cs1` gave an apparent permeability (Papp) of 18 ×10⁻⁶ cm/s.

In turn, `CN(C)C(=O)NC1CCC(CCN2CCN(c3cccc(Cl)c3Cl)CC2)CC1` (stereo not drawn) registered an apparent permeability coefficient (Papp) of 100 ×10⁻⁶ cm/s.

Regarding `O=C(Nc1cccnc1)c1cccs1`, the apparent permeability (Papp) amounted to 10 ×10⁻⁶ cm/s.

As for `Oc1ccc(/C=C/c2cc(O)cc(O)c2)cc1`, the Papp was 5 ×10⁻⁶ cm/s.

Turning to `CC[C@@H]1C[C@]1(NC(=O)[C@@H]1C[C@@H]2CN1C(=O)[C@H](C(C)(C)C)NC(=O)OCC(C)(C)CCCCc1cccc3c1CN(C3)C(=O)O2)C(=O)NS(=O)(=O)C1CC1`, the apparent permeability coefficient (Papp) worked out at 10 ×10⁻⁶ cm/s.

Regarding `Cn1nnnc1Sc1ncnc2scc(-c3ccc(C#N)cc3)c12`, the Papp turned out to be 63 ×10⁻⁶ cm/s.

`CCCN(CCC)CCc1cccc2c1CC(=O)N2` registered an apparent permeability coefficient (Papp) of 34 ×10⁻⁶ cm/s.

Take `Cn1c(CCCCCCC(=O)NO)nc2cc(N(CCCl)CCCl)ccc21`: the apparent permeability (Papp) was below 1 ×10⁻⁶ cm/s.

In the case of `NC(=O)N1CCC(CC(=O)N2CCC([C@H]3c4ncc(Br)cc4CCc4cc(Cl)cc(Br)c43)CC2)CC1`, the apparent permeability coefficient (Papp) worked out at 73.5 ×10⁻⁶ cm/s.

`CC(=O)O[C@H]1C[C@@H](C)O[C@H]2O[C@@H]3CC4CC[C@@H]5C(CC[C@]6(C)[C@@H](C7=CC(=O)OC7)CC[C@]56O)[C@@]4(C=O)C[C@H]3O[C@]21O` (stereo partly drawn) yielded a Papp of 54 ×10⁻⁶ cm/s.

`CCC[C@@H](NC(=O)N1C(=O)C(CC)(CC)[C@@H]1Oc1ccc(C(=O)N2CCN(C)CC2)cc1)c1ccc2c(c1)OCO2` had a Papp above 300 ×10⁻⁶ cm/s.

In turn, `C[C@H](Nc1nc(N[C@H](C)C(F)(F)F)nc(-c2cccc(Cl)n2)n1)C(F)(F)F` returned a Papp of 122 ×10⁻⁶ cm/s.

Turning to `Cn1nnnc1SCC1=C(C(=O)O)N2C(=O)[C@H](NC(=O)C(O)c3ccccc3)C2SC1` (stereo partly drawn), the apparent permeability coefficient (Papp) is below 1 ×10⁻⁶ cm/s.

For `N#Cc1ccc(C(=O)N2CCC3(CC2)N=C(N)c2c(F)ccc(F)c2N3)cn1`, the apparent permeability coefficient (Papp) stood at 4 ×10⁻⁶ cm/s.

For `N=c1c2c(-c3ccccc3)c(-c3ccccc3)n(Cc3ccccc3)c2ncn1CCN`, the apparent permeability (Papp) was 78 ×10⁻⁶ cm/s.

`CCC(=O)N1CCN(c2ccc(-n3c(=O)ccc4cnc5ccc(-c6cnc7ccccc7c6)cc5c43)cc2C(F)(F)F)CC1` came in with a Papp of 158 ×10⁻⁶ cm/s.

In the case of `FC(F)(F)c1ccccc1-c1cc(C(F)(F)F)c2nc(C3=NOC4(CCCCC4)C3)[nH]c2c1`, the Papp amounted to 8 ×10⁻⁶ cm/s.

Consider `Cn1nnnc1Sc1ncnc2scc(-c3ccc4c(c3)OCO4)c12`, for which the apparent permeability (Papp) turned out to be 240 ×10⁻⁶ cm/s.

Take `Nc1ncnc2c1ncn2[C@H]1O[C@@H](CSCC[C@@H](N)C(=O)O)[C@H](O)[C@@H]1O`: the apparent permeability coefficient (Papp) is below 1 ×10⁻⁶ cm/s.

As for `CCn1c(C(=O)N(C2CC2)C2CC2)cc2c3c(ncn3C)c(Nc3cc(C)n(C)n3)nc21`, the Papp was 31 ×10⁻⁶ cm/s.

On to `N=c1c2c(-c3ccccc3)c(-c3ccccc3)n(Cc3ccccc3)c2ncn1CCCCO`, for which the apparent permeability (Papp) amounted to 259 ×10⁻⁶ cm/s.

In turn, `CO[C@@]1(NC(=O)C2SC(=C(C(N)=O)C(=O)O)S2)C(=O)N2C(C(=O)O)=C(CSc3nnnn3C)CS[C@@H]21` (stereo partly drawn) yielded a Papp below 1 ×10⁻⁶ cm/s.

In the case of `Cn1nnnc1Sc1ncnc2scc(-c3ccsc3)c12`, the apparent permeability coefficient (Papp) was found to be 173 ×10⁻⁶ cm/s.

Consider `O=C1NCN(c2ccccc2)C12CCN(CCCC(c1ccc(F)cc1)c1ccc(F)cc1)CC2`, for which the Papp was found to be 42 ×10⁻⁶ cm/s.

The compound `Cn1nnnc1Sc1ncnc2scc(-c3cccc(Cl)c3)c12` showed an apparent permeability coefficient (Papp) of 134 ×10⁻⁶ cm/s.

In turn, `O=C(N[C@H]1CCS[C@H]2CCC[C@@H](C(=O)O)N2C1=O)[C@@H](S)Cc1ccccc1` returned an apparent permeability (Papp) below 1 ×10⁻⁶ cm/s.

`O=C(NCc1ccc(OC(F)(F)F)cc1)C1c2ccccc2C(=O)N1C1CCOCC1` (stereo not drawn) came in with a Papp of 42 ×10⁻⁶ cm/s.
